# Data from patent US12544431B2, “Peptides for the treatment of cancer and/or metastasis” (BCN PEPTIDES, S.A., priority 2019, dated 2026).
# Entries after “also recorded” stand apart in the source; their conditions may differ. Marks after values point to notes of the source that are not given here. Where a SMILES comes first, the peptide text is derived from it. [ ]: non-standard residue; d: D form. Phe(2,4,6-Me3) = Cc1cc(C)c(C[C@H](N)C(=O)O)c(C)c1; pGlu = O=C1CC[C@@H](C(=O)O)N1
# Tests used:
# [1] = In vitro stability, half-life in human plasma; type: in vitro ADME; details: 90% human plasma, 37° C., RP-HPLC; read-out: t½ (hours) in human plasma (converted)
# Procedure: The peptides and peptide dimer synthesized and prepared in accordance with Example 1 were dissolved in water at a concentration of 6 mg/mL and warmed up to 37° C.
# Human plasma was obtained as a lyophilized solid (K3 EDTA Plasma, BBI Solutions, code S112-1), reconstituted with sterile 0.9% sodium chloride solution and stored at −20° C. Human plasma was thawed and incubated at 37° C. before use.
# The peptides and peptide dimer were incubated in 90% human plasma at 37° C. for different times and then precipitated with two volume equivalents of methanol. The samples were cooled in an acetone-carbon dioxide bath for a few seconds and centrifuged for 12 minutes at 4° C. at approximately 10,000 rpm. The supernatant was filtered with a 0.45 μm PVDF filter and analyzed in triplicate by RP-HPLC using an isocratic method (Eluent A=0.1% TFA in water; Eluent B=0.07% TFA in ACN, Column=Kromasil C8, 100 Å, 5 μm, 250×4.6 mm, Flow=1 mL/min, Wavelength: 220 nm, Injection volume=20 μL, Temperature=60° C.). The disappearance of the compound was determined in relation to the area of the initial time to calculate its half-life.
# [2] = system: RH30 rhabdomyosarcoma cells; assay: Matrigel-coated transwell invasion assay, RH30 cells; type: cell-based; details: % invasive cells vs non-treated control
# Procedure: (§1) 10^5 RH30 or RD cells were plated in the upper chamber of a Matrigel-coated transwell (Corning) in 0.1 mL medium without FBS. Cells were previously incubated with different concentrations (0 nM, 100 nM, 200 nM, 500 nM and 1000 nM) of the peptides and peptide dimer for 48 hours, being also present in the medium during the cell invasion assay. In the lower chamber, 0.6 mL of medium with FBS was added. Cells were incubated at 37° ° C. for 24 hours.
# (§2) After that, cells were fixed with 4% paraformaldehyde (Sigma) for 10 minutes, followed by washing with PBS. After removal of the Matrigel and remaining cells from the upper face of the membrane with a cotton swab, the cells present on the lower face were stained with a Hoechst dilution (Sigma) and were counted (5 fields for each well) with an inverted fluorescence microscope Nikon with a 10× objective. All experiments were made in triplicate. In Table 6 the % Invasiveness represents the mean percentage of invasive cells with respect to their controls.
# [3] = system: RD rhabdomyosarcoma cells; assay: Matrigel-coated transwell invasion assay, RD cells; type: cell-based; details: % invasive cells vs non-treated control
# Procedure: as §1, §2
# [4] = system: CHLA-90 neuroblastoma cells; assay: Transwell invasion assay, CHLA-90 cells; type: cell-based
# Procedure: as §1, §2
# (§3) The transwell assay with CHLA-90 and BE(2)-C cell lines was done following the same conditions detailed for determining the % of invasiveness in rhabdomyosarcoma cells.
# (§4) The transwell assay with neuroblastoma cell lines (CHLA-90, BE(2)-C and SK—N-BE(2)-C)) and breast cancer cell lines (MDA-MB-231 and MDA-MB-468) was performed at the same conditions detailed for determining the % of invasiveness in rhabdomyosarcoma cells.
# [5] = system: BE(2)-C neuroblastoma cells; assay: Transwell invasion assay, BE(2)-C cells; type: cell-based
# Procedure: as §1, §2, §3, §4
# [6] = system: RD rhabdomyosarcoma cells; assay: Rhabdomyosarcoma metastatic mice model (RD cells i.v. in tail vein); type: in vivo, SCID/Beige mice; details: for event-free survival vs vehicle group (in words): 27-week study; for Absence of metastases, number of mice / Absence of metastases, percentage of mice / Presence of metastases (%), percentage of mice / Presence of metastases, number of mice: 27 weeks; for body weight, treated vs vehicle-treated mice (in words): along the 27-week study; for reduction in metastases formation: vs PBS-treated mice
# Procedure: SCID/Beige female mice aged of 5 weeks were administered subcutaneously (s.c.) at day −1 with the first dose of treatment i.e. the vehicle (PBS, Phosphate buffered saline) or the peptides. On day 0, mice were injected intravenously (i.v.) in the tail vein with 2×10^6 RD rhabdomyosarcoma cells.
# Body weight was evaluated twice per week for 27 weeks. Overall survival and event-free survival were determined. At necropsy, the total number of metastases were quantified and the number of metastases per mice and their localization were also reported.
# [7] = 500 nM peptide, listed as SEQ ID NO: 6—NH2
# [8] = 0.5 mg/kg s.c. three times per week
# [9] = 2 mg/kg s.c. three times per week
smiles,measurement,setting,value
"Cc1cc(C)c(C[C@H](NC(=O)[C@H](CCC(=O)O)NC(=O)[C@@H]2CCCN2C(=O)[C@H](CC(C)C)NC(=O)[C@H](CC(=O)O)NC(=O)[C@H](CS)NC(=O)[C@H](CO)NC(=O)[C@H](CC(N)=O)NC(=O)[C@H](CO)NC(=O)[C@H](CO)NC(=O)[C@H](CC(=O)O)NC(=O)[C@H](CCCNC(=N)N)NC(=O)[C@H](CCCCN)NC(=O)[C@@H]2CCC(=O)N2)C(=O)N[C@@H](CCCCN)C(N)=O)c(C)c1 [SEQ ID NO: 6-NH2, Pyr-Lys-Arg-Asp-Ser-Ser-Asn-Ser-Cys-Asp-Leu-Pro-Glu-Msa-Lys-NH2] ([pGlu]KRDSSNSCDLPE[Phe(2,4,6-Me3)]K-NH2)",half-life at 0.6 mg/mL,[1],0.17 h
same,% Invasiveness RH30,[2]; 100 nM peptide,54.67%
same,% Invasiveness RH30,[2]; 500 nM peptide,22.77* %
same,% Invasiveness RH30,[2]; [7],significant reduction
same,% Invasiveness RD,[3]; 100 nM peptide,39.45%
same,% Invasiveness RD,[3]; 500 nM peptide,39.98%
same,% Invasiveness CHLA-90,[4]; 100 nM peptide,75.90%
same,% Invasiveness CHLA-90,[4]; 200 nM peptide,55.22* %
same,% Invasiveness CHLA-90,"[4]; 200 nM peptide, listed as SEQ ID NO: 6—NH2",significant reductions
same,% Invasiveness CHLA-90,[4]; 500 nM peptide,44.58* %
same,% Invasiveness CHLA-90,[4]; 1000 nM peptide,49.00* %
same,% Invasiveness BE(2)-C,[5]; 100 nM peptide,60.08%
same,% Invasiveness BE(2)-C,[5]; 200 nM peptide,59.04%
same,% Invasiveness BE(2)-C,[5]; 500 nM peptide,31.17* %
same,% Invasiveness BE(2)-C,[5]; [7],significant reductions
same,% Invasiveness BE(2)-C,[5]; 1000 nM peptide,23.54* %
same,event-free survival vs vehicle group (in words),"[6]; 0.5 mg/kg (lower dose), listed as SEQ ID NO: 6—NH2",did not show a significant effect
same,event-free survival vs vehicle group (in words),"[6]; 0.5 mg/kg (lower dose), listed as SEQ ID NO:6—NH2",did not show statistically significant difference
same,"Absence of metastases, number of mice",[6]; [8],1
same,"Absence of metastases, percentage of mice",[6]; [8],17%
same,"Presence of metastases (%), percentage of mice",[6]; [8],83%
same,"Presence of metastases, number of mice",[6]; [8],5
same,"body weight, treated vs vehicle-treated mice (in words)",[6]; 0.5 mg/kg,vehicle-treated mice showed a statistically significant lower body weight
same,reduction in metastases formation,[6]; 0.5 mg/kg,~15%
same,number of metastases per mouse vs vehicle (in words),"[6]; 2 mg/kg (higher dose), at necropsy",statistically reduced the formation of metastases per mouse; also recorded: efficacious in the reduction of the number of metastases
same,"Absence of metastases, number of mice",[6]; [9],1
same,"Absence of metastases, percentage of mice",[6]; [9],14%
same,"Presence of metastases (%), percentage of mice",[6]; [9],86%
same,"Presence of metastases, number of mice",[6]; [9],6
same,event-free survival vs vehicle group (in words),"[6]; 2 mg/kg, Log-rank",did not show statistically significant difference
same,"body weight, treated vs vehicle-treated mice (in words)",[6]; 2 mg/kg,vehicle-treated mice showed a statistically significant lower body weight
same,reduction in metastases formation,[6]; 2 mg/kg,~15%
